Measurements: patent US12194053B2, “Compositions and methods for reducing oxidative damage” (University of Louisville Research Foundation, Inc., priority 2012, dated 2025)
Where two headings read alike, the source gives them in different places.

System: porcine lenses
Text: To analyze the efficacy and the biocompatibility of the compositions produced as described above, an ex viva analysis was undertaken in which the compositions were applied to eye lenses ex vivo. In these experiments, harvested porcine lenses were utilized.
Upon establishing the culturing conditions for the lenses, hyperoxic conditions were created and used to test the efficacy of the gelled compositions in protecting against oxidative damage and cataract formation. Briefly, in these experiments, two methods were used to test the efficacy of the compositions in preventing oxidative lens damage. Initially, oxidative damage with superoxide radicals generated by the addition of hydrogen peroxide into the lens culture medium was employed.

OO [H2O2, hydrogen peroxide]
day lens clarity started to be affected (0.3 mM H2O2): 9 days
lens area opacified by day 14 (0.3 mM H2O2): 40%
day lens opacity started (0.4 mM H2O2): 5 days
lens area covered by opacity by day 14 (0.4 mM H2O2): 60%
day lens opacity started (0.5 mM H2O2): 3 days
lens opacity on day 14 (0.5 mM H2O2): 90%
extent of cataract by day 5 (1 mM H2O2): total cataract
time lens opacity first appeared (1 mM H2O2 in lens culture medium): 24 h
lens opacification (H2O2 concentrations below 0.3 mM, up to 28 days of ex vivo culturing): did not appear to cause any lens opacification
